The values that follow come from patent US20240245703A1, “TOPICAL APPLICATION OF AGENTS TO REDUCE SUN SENSITIVITY AND IMPROVE TOPICAL PHOTODYNAMIC THERAPY” (Wright State University, priority 2021, published 2024).

Series [1] deals with PDT-induced immunosuppression. As to the kind of experiment: contact hypersensitivity (CHS) to DNFB after PDT, ear thickness. Type of series: in vivo, mice. As to conditions: aSMase-deficient (Smpd1-/-) mice, CPAF intraperitoneal. The source says:
Five days later the mice underwent sensitization with the neoantigen DNFB. To test for local immunosuppression, DNFB was applied to the PDT-treated area. To test for systemic immunosuppression, the DNFB was applied to back skin at least 2 cm away from the PDT-treated area. Nine days later the mice underwent elicitation reactions to DNFB by application to one ear, with vehicle applied to the other ear. One day later the ear thickness was obtained as a measure of CHS reaction and compared to pre-treatment and vehicle-treated values. Some mice were treated with intraperitoneal CPAF as a positive control for systemic immunosuppression.
For the data shown in FIG. 20, wild-type mice either were injected intraperitoneally with 250 ng CPAF as a positive control for immunosuppression, underwent PDT using 10 J/cm^2 blue light, or received no treatment (SHAM). […] Five days later the mice underwent sensitization with DNFB in PDT-treated (local immunosuppression) or non-PDT-treated skin (systemic immunosuppression). Nine days later the mice underwent elicitation reactions to ears with ear thickness measured at 24 hours. For the data shown in FIG. 21, wild type and aSMase-deficient (Smpd1−/−) mice underwent treatment with CPAF or PDT followed by DNFB sensitization/elicitation reactions as in FIG. 20. The data are mean±SD values. * Denotes statistically significant (P<0.05) changes from sham treatment values using two-way ANOVA.

Series [2] deals with human fibroblasts which lack PAFRs. As to the kind of experiment: MVP levels in human fibroblasts which lack PAFRs. As to conditions: human fibroblasts lacking PAFRs, data not shown. The format is cell-based.
The subject of series [3] is aSMase. The following applies: cited from earlier work.
The subject of series [4] is aSMase. As to the kind of experiment: residual aSMase activity after treatment of PC12 cells with 10 micromolar agent. The format is cell-based. The following applies: from Table 1 residual aSMase activity. The procedure:
The data were obtained in a cell-based study by adding 10 micromolar aliquots of the above agents to PC12 cells for the indicated amounts of time (usually 0.5, 6, or 24 hours). Cells were lysed and aSMase activity measured using [choline methyl-14C] sphingomyeline. The amount of aSMase activity following the treatment of the agent was compared to vehicle without any FIASM. […] The data for the listed compounds (n=276) is based on the publication by Kornhuber et al. 2008, including compounds number n=101 combined with an additional set of compounds (n=175) Kornhuber J, Muehlbacher M, Trapp S, Pechmann S, Friedl A, Reichel M, Mühle C, Terfloth L, Groemer T W, Spitzer G M, Liedl K R, Gulbins E, Tripal P. Identification of novel functional inhibitors of acid sphingomyelinase. PLOS One. 2011; 6 (8): e23852. doi: 10.1371/journal.pone.0023852. Epub 2011 Aug. 31. PMID: 21909365; PMCID: PMC3166082. The numbering of compounds is identical to the previous publication for the first 101 compounds. CID=PubChem Compound ID. Set: 1=experimental values from Kornhuber et al. 2008, 2=corrected experimental values of the previously published compounds; 3=newly investigated compounds, Acid/Base: 1=monobase, 2=monoacid, 3=bibase, 4=zwitter. Mean residual activity of ASM is given as % of the corresponding control values.

The conditions of series [5]: hairless mice, effect of propylene glycol; cited from earlier work.
Another series relates to PDT-induced MVP release. In words: PDT-induced MVP release in skin and plasma of mice. Type of series: in vivo. Here is the method: Next, the role of PAF and aSMase in PDT-induced MVP release was assessed. […] Next, the ability of topical PDT to generate MVP in vivo in mice, and the role of aSMase in this process, was determined. […] Two approaches were used to determine if PDT-induced MVP involved aSMase.
The role of aSMase in PDT-mediated MVP release was evaluated in a murine system. For the data shown in FIG. 18, wild-type mice were treated with either sham, 100 μl of 5 mM IMIP, or 90% polyethylene glycol: 10% DMSO vehicle, or 1 μM TPA (as a positive control for MVP release), or PDT using 20 J/cm^2 blue light. Immediately following PDT, the treated areas were given vehicle or imipramine. At 4 hours post-treatment, the mice were euthanized and MVP were measured from duplicate 6-mm punch biopsies and plasma. The data are mean±SD fold increase in MVP normalized to tissue weight/plasma volume. * Denotes statistically significant (P<0.05) changes from sham; #statistically significant (P<0.05) changes from comparator denoted by line by two-way ANOVA; NS not statistically significant.
To confirm the role of aSMase in PDT-induced MVP generation, PDT effects were evaluated in the absence of aSMase was evaluated in a murine system. For the data shown in FIG. 19, wild-type or aSMase-deficient (Smpd1−/−) mice underwent sham or PDT using 20 J/cm^2 blue light. At 4 hours post-treatment, the mice were euthanized and MVP were measured from duplicate 6-mm punch biopsies and plasma. The data are mean±SD fold increase in MVP normalized to tissue weight/plasma volume. * Denotes statistically significant (P<0.05) changes from sham; NS not statistically significant.

In the case of `CCCCCCCCCCCCCCCCOC[C@H](COP(=O)([O-])OCC[N+](C)(C)C)OC(=O)NC` [CPAF, carbamoyl-PAF], the “immunosuppression in aSMase KO mice (CHS to DNFB)” value in series [1] is listed as “resulted in similar levels of immunosuppression in comparison to wild-type mice”. The “MVP levels in fibroblasts” value in series [2] is “robust increases in MVP levels in response to PDT but not the PAFR agonist CPAF”.
For `CN(C)CCC=C1c2ccccc2CCc2ccccc21` [Amitriptyline], the “Residual ASM Activity” value in the series on aSMase [3] (10 micromolar, PC12 cells, incubation time 0.5 h, % of corresponding control values) was 11.7%. Besides, the “residual aSMase activity after treatment” value in the series with aSMase [3] (from Kornhuber et al. 2008) was 11.7%. The “potency relative to imipramine” value in the series with aSMase [4] is “approximately three times more potent than imipramine”. Moreover, in series [5], the “absorption with propylene glycol” value is reported as “enhances absorption”.
In the case of `CCCCCCCCCCCCCC(=O)O[C@@H]1[C@@H](C)[C@@]2(O)[C@@H](C=C(CO)C[C@]3(O)C(=O)C(C)=C[C@@H]23)[C@@H]2C(C)(C)[C@]12OC(C)=O` [TPA, 12-O-tetradecanoylphorbol-13-acetate], the “MVP levels after topical TPA” value in the series on PDT-induced MVP release (wild-type mice, 1 μM TPA, positive control, 4 h) is on record as “resulted in increased levels of MVP”.
As for `CCCCCCCCCCCCC/C=C/[C@@H](O)[C@H](CO)NC(C)=O` [C-2 ceramide], the “MVP generation in aSMase KO mice” value with PDT-induced MVP release (topical application, aSMase KO mice, data not shown) is reported as “generates MVP in the aSMase KO mice”.
